One experiment relates to C2C12 myotubes. The experiment in a line: Glucose uptake in muscle myotubes. The experiment is classed as cell-based, rat. The conditions noted are these: different concentrations of RG54; three independent experiments. The protocol:
C2C12 myoblasts were differentiated to myotubes by switching from growth media to 2% FBS DMEM for 7 days, with the addition of cytosine arabinoside (Sigma, Stockholm, Sweden) from day 3 to 5 to eliminate proliferating cells. Prior to stimulation, cells starved for 2 h in serum-free DMEM were treated as described and glucose uptake measurements were carried out. See ESM Methods for more details.
Fig. 3 RG54 induces skeletal muscle glucose uptake and primes INS-1E cells to increase GSIS. (a) C2C12 skeletal muscle myotubes were incubated in the absence or presence of different concentrations of RG54 or with insulin, followed by glucose uptake measurements. Values are means ± SEM from three independent experiments. *p≤0.05, **p≤0.01, ***p≤0.001 vs control. (b) INS-1E cells were incubated for 2 h in the absence or presence of different concentrations of RG54 in a low-glucose environment (preincubation). Buffer was replaced with one containing low (3.3 mmol/l) or high (20 mmol/l) glucose but no RG54 peptide. Insulin secretion was measured after 1 h glucose challenge. […]
No statistical methods were used to predetermine sample sizes, but sample sizes are similar to those reported in the field. […] Group allocation was blinded for all mouse work when possible (such as collection of blood or tissues, sample quantification and analysis, and atherosclerosis scoring). […]

The test system of another experiment is J774 macrophages. The experiment in a line: Cholesterol efflux assay. It is filed as cell-based, mouse. As for the experimental part:
The mouse macrophage-like cell line J774 (ATCC TIB-67), loaded with ^3H-cholesterol, was used for cholesterol efflux to acceptors (RG54 or ApoA-I) as previously described.
To investigate the functionality of the RG54 peptide in a physiological context, cholesterol efflux from J774 macrophages was employed. Cultured macrophages were loaded with radioactive cholesterol, then incubated for 2 or 4 h with RG54 peptide or ApoA-I at the shown concentrations, followed by quantification of the amount of effluxed ^3H-cholesterol (Fig. 1a,b). […] As most circulating ApoA-I is bound to lipids in various species of HDL, and as the RG54 peptide was shown in the lipid clearance assay to efficiently associate with lipids, we reasoned that lipidation of the RG54 peptide might improve its catalytic activity. To explore this, RG54 was first incubated with lipids as described in ESM Fig. 4d, followed by comparative analyses of the catalytic capacities in cholesterol efflux from cholesterol-loaded macrophages.
Fig. 1 Cholesterol efflux activity of RG54 compared with ApoA-I. (a, b) Concentration dependence of cholesterol efflux from ^3H-cholesterol-labelled J774 cells by lipid-free RG54 or ApoA-I was measured after 2 h (a) or 4 h (b). n=5 for both. Vmax (c) and KM (d) were calculated using the Michaelis–Menten equation. (e–g) Efflux activity of lipid-free (LF) and lipid-bound (LB) RG54 was compared after 2 h. n=3. An acyl CoA:cholesterol O-acyltransferase (ACAT) inhibitor and 8-(4-chlorophenylthio; CPT)-cAMP were used in all experiments to prevent formation of cholesteryl esters of ^3H-cholesterol and to induce expression of ABCA1, respectively. Values are means ± SEM. **p≤0.01, ***p≤0.001

A short description of experiment [1]: DMPC MLV lipid clearance (lipid binding). The settings on record: compared with ApoA-I; 30 nmol/l DMPC, 1:100 molar ratio, 25°C, absorbance at 325 nm; n=5. The protocol: Turbid MLV solutions at 30 nmol/l DMPC were combined with PBS, RG54 or ApoA-I at a 1:100 molar ratio, and lipid binding at 25°C was measured by absorbance at 325 nm at the indicated times. Readings were fitted to one-way decay of non-linear regression.
Quantitative and qualitative lipid assays were applied to determine the lipid-binding properties of RG54. Solubilisation of MLVs made from DMPC phospholipids by RG54 peptide, or by recombinant ApoA-I protein as control, was assayed by light scattering (ESM Fig. 4a).
ESM Figure 4. Lipid clearance and peptide-lipid complex formation activity of RG54 compared with full-length ApoA-I.
DMPC clearance activity of RG54 was compared with ApoA-I. Turbid solutions of DMPC MLVs (30 nmol/l) were prepared in PBS as described in Methods and combined with PBS, RG54, or ApoA-I at a 1:100 molar ratio then lipid binding at 25°C was measured by absorbance at 325 nm at indicated times. (a) Readings were fitted to one-way decay of non-linear regression. (b) The lipid clearance rate is described as t1/2 values calculated from panel a, means ± SEM, n=5, *** p ≤ 0.001. Further, rHDL particles were prepared by incubating the MLVs with proteins or peptides in the molar ratios noted at 24°C for four days. Particle size distribution was analysed by DLS and frequency curves generated for ApoA-I (c) or RG54 (d). […]

No end group written: not given here.

Consider “Ac-AEYHAKATEHLSTLSEKAKPALEDLRQGLLPVLESFKVSFLSALEEYTKKLNTQ [RG54]”, for which the glucose uptake result with C2C12 myotubes was “dose-dependent stimulation”. For the same substance, the “Vmax of cholesterol efflux, lipid-bound vs lipid-free” value with J774 macrophages (RG54 first incubated with lipids (DMPC), 2 h, n=3) is recorded as “twofold increase”. Moreover, the “Vmax of cholesterol efflux” value with J774 macrophages (lipid-free RG54 compared with ApoA-I, Michaelis-Menten, n=5) is recorded as “significantly lower”. For the same substance, the cholesterol efflux entry in the experiment with J774 macrophages (lipid-free, 3H-cholesterol-loaded J774, 2 or 4 h, ACAT inhibitor and CPT-cAMP, n=5) was “dose-dependent manner”. For the same substance, the “initial rate of phospholipid binding” value in experiment [1] is “significantly lower”.

The values above are taken from PMC6560211, “ApoAI-derived peptide increases glucose tolerance and prevents formation of atherosclerosis in mice” (Diabetologia, 2019).
